Experiment [1] deals with T1, MurA (Escherichia coli, UniProt P0A749).
T1 construct: purified enzyme
Description: coupled phosphate-release fluorescence assay (7-methylguanosine / purine nucleoside phosphorylase), global fit. In kind it is biochemical. The note with it: competitive with UNAG; 1 mM phosphoenolpyruvate, pH 7.5, 50 mM NaCl.

Experiment [2] deals with T1, MurA. The experiment is described as above. In kind it is biochemical. The note with it: 1 mM phosphoenolpyruvate, pH 7.5, 50 mM NaCl; global fit with UNAG-3P inhibition.

These results are taken from paper PMC3062530, “A Novel Mechanism of Programmed Cell Death in Bacteria by Toxin–Antitoxin Systems Corrupts Peptidoglycan Synthesis” (PLoS Biology, 2011).

T1 sequence (P0A749 whole entry): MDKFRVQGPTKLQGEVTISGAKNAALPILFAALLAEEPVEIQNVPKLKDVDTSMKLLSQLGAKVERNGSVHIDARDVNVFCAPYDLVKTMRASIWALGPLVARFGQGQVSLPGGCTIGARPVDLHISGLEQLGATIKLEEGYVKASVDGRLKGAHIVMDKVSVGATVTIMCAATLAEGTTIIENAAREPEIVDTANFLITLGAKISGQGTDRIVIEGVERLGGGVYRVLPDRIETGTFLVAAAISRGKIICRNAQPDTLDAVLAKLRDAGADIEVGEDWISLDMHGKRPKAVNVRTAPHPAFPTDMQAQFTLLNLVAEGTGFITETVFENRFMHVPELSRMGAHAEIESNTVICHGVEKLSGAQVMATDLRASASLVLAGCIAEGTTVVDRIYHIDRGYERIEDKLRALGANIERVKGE

By Ki is commonly meant a measure of affinity in units of concentration, obtained from inhibition or displacement. High values mean a looser hold on the target, low ones a stronger hold on the target. `CC(=O)N[C@H]1[C@@H](OP(=O)(O)OP(=O)(O)OC[C@H]2O[C@@H](n3ccc(=O)[nH]c3=O)[C@H](O)[C@@H]2O)O[C@H](CO)[C@@H](O)[C@@H]1OP(=O)(O)O` [UNAG-3P] displayed a Ki in experiment [1] of 7 µM. In general, Km refers to the concentration of substrate that gives half-maximal velocity. `CC(=O)N[C@H]1[C@@H](OP(=O)(O)OP(=O)(O)OC[C@H]2O[C@@H](n3ccc(=O)[nH]c3=O)[C@H](O)[C@@H]2O)O[C@H](CO)[C@@H](O)[C@@H]1O` [UNAG]: in experiment [2], the Km was determined as 15 µM.
